In US11844866B2, “Gastroretentive extended release dosage form” (Novelstar Pharmaceuticals, Inc., priority 2020, dated 2023):
Where two headings read alike, the source gives them in different places.

What was measured:
API particle size (d90) = format: physicochemical; conditions: API particles
[1] = API stability studies (stress, long term, accelerated; enantiomer interconversion); format: physicochemical
Text: Polymorphism has been observed for Apremilast and seven polymorphic forms (designated A-G) of the active substance were identified.
An amorphous form generally provides better solubility and bioavailability than the crystalline form and may be useful for formulations which can have better solubility, and compressibility etc. which are important for formulation and product manufacturing.

[2] = cited from earlier work
[3] = previously reported dosage form; cited from earlier work
[4] = on storage and in vivo; cited from earlier work
[5] = Solubility of Tofacitinib citrate in different pH media and water; format: physicochemical; conditions: 37 °C, read-out: Solubility @37° C., mg/mL for 6 hours
Protocol: The active substance is a white to off-white solid, slightly soluble in water (2.9 mg/mL) and non-hygroscopic. Tofacitinib contains two chiral centers at C3 and C4. The active substance is the enantiomer with absolute configuration (R) for both the C-3 and the C-4 positions. The overall stereochemistry of tofacitinib is therefore considered as critical and is assured by the quality of the starting materials and the route of synthesis design.
Polymorphism has been studied for the active substance. The crystalline citrate salt, Form A, has been the sole development form of the active substance used in all toxicology and clinical studies. The solubility Tofacitinib citrate is pH dependent, the solubility is decried with pH increasing. […] The pH dependent solubility can lead to pH-dependent in vivo drug release from sustained release matrices. Drug release varies as a function of movement through segments of the gastrointestinal tract with different pH. […] The Tofacitinib citrate gastric retention drug delivery system that would provide the highest bioavailability are very desirable because the drug active has highest solubility in the stomach.

[6] = slightly soluble; cited from earlier work

Question: What does the source list for `CCOc1cc([C@@H](CS(C)(=O)=O)N2C(=O)c3cccc(NC(C)=O)c3C2=O)ccc1OC` [Apremilast amorphous]?
Answer: particle size d90 (API particle size (d90); listed as Apremilast amorphous form): 22 μm; stability after 6 months ([1]; stress conditions, long term 25° C./60% RH and accelerated 40° C./75% RH): stable

Question: What does the source list for `CCOc1cc([C@@H](CS(C)(=O)=O)N2C(=O)c3cccc(NC(C)=O)c3C2=O)ccc1OC` [Apremilast, (+) enantiomer of 2-[1-(3-ethoxy-4-methoxyphenyl)-2-methanesulfonylethyl]-4-acetylaminoisoindolin-1,3-dione]?
Answer: solubility in aqueous buffers ([2]; irrespective of pH range): practically insoluble; Biopharmaceutical Classification System class ([2]; low solubility and low permeability): BCS Class 4; share of absorption taking place in the proximal small bowel [3]: about 93%; interconversion of (S)-enantiomer to (R)-enantiomer [4]: no interconversion

Question: For `C[C@@H]1CCN(C(=O)CC#N)C[C@@H]1N(C)c1ncnc2[nH]ccc12.O=C(O)CC(O)(CC(=O)O)C(=O)O` [Tofacitinib citrate, 3-((3R,4R)-4-methyl-3-(methyl(7H-pyrrolo[2,3-d]pyrimidin-4 yl)amino)piperidin-1-yl)-3-oxopropanenitrile, 2-hydroxypropane-1,2,3-tricarboxylic acid], which solubility at 6 h ([5]; pH 1.18, simulated gastric fluid, thermodynamic from solid, 0.1N HCl, final pH observed 1.18) is on record?
Answer: The solubility at 6 h was 27.8 mg/mL.

Question: And the solubility at 6 h ([5]; pH 4.9, thermodynamic from solid, Water, final pH observed 4.90)?
Answer: The solubility at 6 h was 2.9 mg/mL.

Question: What about the solubility at 6 h ([5]; pH 4.5 medium, aqueous buffer, thermodynamic from solid, pH 4.5, final pH observed 4.50) of the same molecule?
Answer: Its solubility at 6 h is 4.57 mg/mL.

Question: What about the solubility at 6 h ([5]; pH 6.8 medium, aqueous buffer, thermodynamic from solid, pH 6.8, final pH observed 6.78) of the same molecule?
Answer: Its solubility at 6 h is 2.03 mg/mL.

Question: What about the solubility in water [6] of the same molecule?
Answer: Its solubility in water is 2900 µg/mL.

Question: With `CCOc1cc([C@@H](CS(C)(=O)=O)N2C(=O)c3cccc(NC(C)=O)c3C2=O)ccc1OC` [Apremilast Form B] as the molecule, how does the “particle size d90” value (API particle size (d90)) read?
Answer: The value was 8 μm.

Question: What about the “stability after exposing to different stress test conditions” value ([1]; stress test conditions) of the same molecule?
Answer: Its value is “stable”.
